Results published in patent publication US8748448B2, “Combination analgesic employing opioid agonist and neutral antagonist” (AIKO Biotechnology, priority 2007, dated 2014).
“And” between values parts separate entries of the source, which are not always exact repeats. Equal values may be shown once.

Assays:
[1] = system: hydrocodone effects: GI transit (peripheral) vs. antinociception (central); assay: Peripheral vs. central potency, (antinociception ID50)/(GI transit ID50); type: in vivo, mice
[2] = system: morphine-induced analgesia; assay: Cold pressor test with 10 mg morphine i.v.; type: in vivo, human; settings: doses up to 20 mg i.v.
[3] = 6β-naltrexol plasma pharmacokinetics after i.v. infusion, opioid-naïve volunteers (eIND); settings: humans

6β-naltrexol
Fold-Shift (antinociception ID50)/(GI transit ID50) ([1]; antagonist p.o./hydrocodone p.o. co-administered): 9.53 and 9.5 | selectivity in blocking peripheral over central opioid effects ([1]; mice, oral administration, earlier experiments): approximately tenfold | therapeutic window (peripheral side effects reduced without inhibition of analgesia) ([1]; mouse, orally co-administered with hydrocodone): 0.1 to 3.0 mg/kg | fold more potent peripherally than centrally ([1]; over all administration routes): 5-10 fold | effect on morphine-induced analgesia [2]: no detectable effect | blood half-life relative to most commonly used oral opioid analgesic formulations [3]: 3-4 times | mean terminal plasma elimination half-life ([3]; i.v. infusion 3 mg or 10 mg): 11.1 ± 2.4 h
